Here are results for 37 molecules from patent US8466155B2, “Pyrimidines” (Boehringer Ingelheim International GmbH, priority 2009, dated 2013).

By pIC50 is commonly meant −log10 of the IC50, conventionally taken in molar units.

pIC50: −log10 of the molar value.

T1 sequence (Q05397 whole entry): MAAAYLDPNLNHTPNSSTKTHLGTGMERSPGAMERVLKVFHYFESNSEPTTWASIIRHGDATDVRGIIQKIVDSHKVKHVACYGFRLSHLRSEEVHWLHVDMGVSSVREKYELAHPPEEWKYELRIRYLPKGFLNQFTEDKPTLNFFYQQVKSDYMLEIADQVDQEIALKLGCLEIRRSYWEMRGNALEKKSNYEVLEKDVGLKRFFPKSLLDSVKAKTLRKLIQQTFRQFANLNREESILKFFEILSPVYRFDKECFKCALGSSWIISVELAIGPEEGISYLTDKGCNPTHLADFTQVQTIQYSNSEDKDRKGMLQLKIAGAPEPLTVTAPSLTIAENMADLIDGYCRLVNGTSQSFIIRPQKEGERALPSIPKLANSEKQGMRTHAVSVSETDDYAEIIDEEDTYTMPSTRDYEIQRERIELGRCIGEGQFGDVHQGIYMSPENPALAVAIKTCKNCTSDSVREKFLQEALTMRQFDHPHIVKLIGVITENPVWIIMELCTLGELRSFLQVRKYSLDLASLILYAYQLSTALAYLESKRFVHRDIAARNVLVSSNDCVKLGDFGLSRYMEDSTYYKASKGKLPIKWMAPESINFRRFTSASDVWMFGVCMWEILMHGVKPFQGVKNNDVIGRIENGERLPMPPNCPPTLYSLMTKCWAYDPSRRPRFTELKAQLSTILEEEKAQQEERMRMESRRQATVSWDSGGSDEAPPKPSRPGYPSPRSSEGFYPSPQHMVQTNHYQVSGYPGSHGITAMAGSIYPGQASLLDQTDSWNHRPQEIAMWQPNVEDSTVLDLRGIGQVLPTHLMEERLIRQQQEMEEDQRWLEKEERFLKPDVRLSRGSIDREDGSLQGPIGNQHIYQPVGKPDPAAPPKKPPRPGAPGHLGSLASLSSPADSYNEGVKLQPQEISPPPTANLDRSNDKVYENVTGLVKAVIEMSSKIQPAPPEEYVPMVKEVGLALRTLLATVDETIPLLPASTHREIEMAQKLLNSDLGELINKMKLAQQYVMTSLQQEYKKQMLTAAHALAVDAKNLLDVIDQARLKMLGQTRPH

This test concerns the target T1, PTK2 (Homo sapiens, UniProt Q05397).
T1 construct: purchased Invitrogen PV3832
Briefly: PTK2 enzyme test, Assay 1 (DELFIA, PT60 antibody). To be noted: 1 h pre-incubation, 1 h kinase reaction, values without *. The format is biochemical. The procedure:
This test uses active PTK2 enzyme (Invitrogen Code PV3832) and poly-Glu-Tyr (4:1, Sigma P-0275) as the kinase substrate. The kinase activity is detected through the phosphorylation of the substrate in a DELFIA™ assay. The phosphorylated substrate is detected with the europium-labelled phosphotyrosine antibody PT60 (Perkin Elmer, No.: AD00400).
In order to determine concentration-activity curves with PTK2-inhibitors the compounds are serially diluted in 10% DMSO/H20 and 10 μL of each dilution are placed in each well of a 96-well microtitre plate (clear plate with a U-shaped base, Greiner No. 650101) (the inhibitors are tested in duplicates) and mixed with 10 μL/well of PTK2 kinase (0.01 μg/well). PTK2 kinase has been correspondingly diluted beforehand with kinase dilution buffer (20 mM TRIS/HCl pH 7.5, 0.1 mM EDTA, 0.1 mM EGTA, 0.286 mM sodium orthovanadate, 10% glycerol with the addition of freshly prepared BSA (fraction V, 1 mg/mL) and DTT (1 mM)). The test compound and the PTK2 kinase are pre-incubated for 1 h at RT and shaken at 500 revolutions per min. The reaction is started by the addition of 10 μL/well poly (Glu,Tyr) substrate (25 μg/well poly (Glu, Tyr), 0.05 μg/well biotinylated poly (Glu,Tyr) dissolved in 250 mM TRIS/HCl pH 7.5, 9 mM DTT)—the final concentration of DMSO is 2%. Then 20 μL of ATP Mix (30 mM TRIS/HCl pH 7.5, 0.02% Brij, 0.2 mM sodium orthovanadate, 10 mM magnesium acetate, 0.1 mM EGTA, 1× phosphatase inhibitor cocktail 1 (Sigma, No.: P2850), 50 μM ATP (Sigma, No.: A3377; 15 mM stock solution)) are added. After 1 h of kinase reaction (the plates are shaken at 500 rpm), the reaction is stopped by the addition of 12 μL/well 100 mM EDTA, pH 8.0 and shaken for a further 5 min at RT (500 rpm). 55 μL of the reaction mixture are transferred into a streptavidin plate (Strepta Well High Bind (transparent, 96-well) made by Roche, No.: 11989685001) and incubated for 1 h at RT (shaking at 500 rpm). Then the microtitre plate is washed three times with 200 μL/well D-PBS (Invitrogen, No. 14190). 100 μL of a solution containing DELFIA Eu-N1 Anti-Phosphotyrosine PT60 antibody (Perkin Elmer, No.: AD0040, diluted 1:2000 in DELFIA test buffer (Perkin Elmer, No.: 1244-111)) is then added and the mixture is incubated for 1 h at RT (shaking at 500 rpm). Then the plate is washed three times with 200 μL/well DELFIA washing buffer (Perkin Elmer, No.: 1244-114), 200 μL/well strengthening solution (Perkin Elmer, No.: 1244-105) are added and the mixture is incubated for 10 min at RT (shaking at 300 rpm).
The time-delayed europium fluorescence is then measured in a microtitre plate reader (VICTOR^3, Perkin Elmer). […] Wells that contain test buffer instead of enzyme are used as a control of the background kinase activity.
The IC50 values are determined from analyses of the concentration activity by iterative calculation with the aid of a sigmoid curve analysis algorithm (FIFTY, based on GraphPAD Prism Version 3.03) with a variable Hill coefficient.
The molecule `COc1cc(C(=O)N[C@H]2CC[C@H](N3CCN(CC4CC4)CC3)CC2)c(F)cc1Nc1ncc(C(F)(F)F)c(O[C@@H]2Cc3ccccc3[C@H]2N(C)S(C)(=O)=O)n1` [Example 7] showed a pIC50 of 8.10.

`COc1cc(C(=O)N[C@H]2CC[C@H](N3CCN(CC4CC4)CC3)CC2)ccc1Nc1ncc(C(F)(F)F)c(O[C@@H]2Cc3ccccc3[C@H]2N(C)S(C)(=O)=O)n1` [Example 18] gave a negative-log IC50 (pIC50) of 8.40. This pIC50 is 0.30 log units higher than that of the molecule before.

For `COc1cc(C(=O)NC2CCN(C)CC2)ccc1Nc1ncc(C(F)(F)F)c(O[C@@H]2CCCC[C@H]2N(C)S(C)(=O)=O)n1` [Example 76], the pIC50 was 9.54.

Molecule `COc1cc(C(=O)NCCN(C)C)c(Cl)cc1Nc1ncc(C(F)(F)F)c(O[C@@H]2CCC[C@H]2NS(C)(=O)=O)n1` [Example 78] showed a pIC50 of 9.43.

Molecule `COc1cc(C(=O)NC[C@@H](O)CO)c(Cl)cc1Nc1ncc(Cl)c(O[C@@H]2Cc3ccccc3[C@H]2N(C)S(C)(=O)=O)n1` [Example 42] gave a pIC50 of 8.40.

`COc1cc(C(=O)NCC2CC2)c(F)cc1Nc1ncc(Cl)c(O[C@@H]2Cc3ccccc3[C@H]2N(C)S(C)(=O)=O)n1` [Example 66] showed a pIC50 of 7.80.

In turn, `COc1cc(C(=O)NCC(C)(C)C)c(F)cc1Nc1ncc(C(F)(F)F)c(O[C@@H]2Cc3ccccc3[C@H]2N(C)S(C)(=O)=O)n1` [Example 3] gave a pIC50 of 8.52.

Molecule `CONC(=O)c1cc(OC)c(Nc2ncc(Cl)c(O[C@@H]3Cc4ccccc4[C@H]3N(C)S(C)(=O)=O)n2)cc1Cl` [Example 38] had a pIC50 of 9.00.

`COc1cc(C(=O)N[C@H]2CC[C@H](O)CC2)ccc1Nc1ncc(C(F)(F)F)c(O[C@@H]2Cc3ccccc3[C@H]2N(C)S(C)(=O)=O)n1` [Example 22]: the pIC50 is 8.10. This pIC50 is 0.90 log units lower than that of the molecule before.

The molecule `COc1cc(C(=O)NCC2CC2)ccc1Nc1ncc(C(F)(F)F)c(O[C@@H]2Cc3ccccc3[C@H]2N(C)S(C)(=O)=O)n1` [Example 21] showed a pIC50 of 7.92.

Turning to `COc1cc(C(=O)NN2CCN(C)CC2)c(F)cc1Nc1ncc(Cl)c(O[C@@H]2Cc3ccccc3[C@H]2N(C)S(C)(=O)=O)n1` [Example 59], the pIC50 was 8.22.

Turning to `COc1cc(C(=O)NC2CCN(C)CC2)c(F)cc1Nc1ncc(C(F)(F)F)c(O[C@@H]2CCC[C@H]2NS(=O)(=O)C(F)(F)F)n1` [Example 107], the pIC50 is 6.99.

As to `COc1cc(C(=O)NCCN(C)C)c(F)cc1Nc1ncc(C(F)(F)F)c(O[C@@H]2Cc3ccccc3[C@H]2N(C)S(C)(=O)=O)n1` [Example 2], the pIC50 was 8.30.

Consider `COc1cc(C(=O)NC2CCN(C)CC2)c(Cl)cc1Nc1ncc(C(F)(F)F)c(O[C@@H]2CCCC[C@H]2N(C)S(C)(=O)=O)n1` [Example 74, 2-chloro-4-{4-[(1R,2R)-2-(methanesulphonyl-methyl-amino)-cyclohexyloxy]-5-trifluoromethyl-pyrimidin-2-ylamino}-5-methoxy-N-(1-methyl-piperidin-4-yl)-benzamide], for which the pIC50 is 9.38.

As to `COc1cc(C(=O)NCCCN(C)C)c(F)cc1Nc1ncc(Cl)c(O[C@@H]2Cc3ccccc3[C@H]2N(C)S(C)(=O)=O)n1` [Example 60], the pIC50 was 8.52.

With `COc1cc(C(=O)NCCN(C)C)c(F)cc1Nc1ncc(C(F)(F)F)c(O[C@@H]2CCCC[C@H]2NS(C)(=O)=O)n1` [Example 106], the pIC50 is 9.00.

The molecule `COc1cc(C(=O)NC[C@H](O)CO)ccc1Nc1ncc(C(F)(F)F)c(O[C@@H]2Cc3ccccc3[C@H]2N(C)S(C)(=O)=O)n1` [Example 49] had a pIC50 of 8.30.

Consider `COc1cc(NC(=O)C2CCN(C)CC2)ccc1Nc1ncc(C(F)(F)F)c(O[C@@H]2Cc3ccccc3[C@H]2N(C)S(C)(=O)=O)n1` [Example 91], for which the pIC50 was 8.40. The pIC50 values of the last two molecules are within 0.2 log units of each other.

Turning to `COc1cc(C(=O)NN2CCN(C)CC2)c(Cl)cc1Nc1ncc(C(F)(F)F)c(O[C@@H]2CCC[C@H]2N(C)S(C)(=O)=O)n1` [Example 100, 2-chloro-4-{4-[(1R,2R)-2-(methanesulphonyl-methyl-amino)-cyclopentyloxy]-5-trifluoromethyl-pyrimidin-2-ylamino}-5-methoxy-N-(4-methyl-piperazin-1-yl)-benzamide], the pIC50 was 9.59. This pIC50 is 1.19 log units higher than that of the molecule before.

Turning to `COc1cc(C(=O)NCCN(C)C)c(F)cc1Nc1ncc(C(F)(F)F)c(O[C@@H]2CCC[C@H]2NS(C)(=O)=O)n1` [Example 99], the pIC50 is 9.43.

Regarding `COc1cc(C(=O)NC[C@H](O)CO)c(Cl)cc1Nc1ncc(Cl)c(O[C@@H]2Cc3ccccc3[C@H]2N(C)S(C)(=O)=O)n1` [Example 36], the pIC50 was 8.52. Against the preceding molecule, the pIC50 is 0.91 log units lower.

On to `COc1cc(C(=O)NC2CCN(C)CC2)ccc1Nc1ncc(C(F)(F)F)c(O[C@@H]2Cc3ccccc3[C@@H]2N(C)S(C)(=O)=O)n1` [Example 69], for which the pIC50 was 7.38.

Consider `COc1cc(C(=O)NCC2CC2)c(F)cc1Nc1ncc(C(F)(F)F)c(O[C@@H]2Cc3ccccc3[C@H]2N(C)S(C)(=O)=O)n1` [Example 9], for which the negative logarithm of the IC50 (pIC50) was 7.72.

The molecule `COc1cc(C(=O)NC2CCN(C)CC2)c(Cl)cc1Nc1ncc(C(F)(F)F)c(O[C@@H]2CCC[C@H]2NS(=O)(=O)C2CC2)n1` [Example 48] had a pIC50 of 7.66. The pIC50 values of the last two molecules are within 0.2 log units of each other.

Molecule `COc1cc(C(=O)NCCCN(C)C)c(Cl)cc1Nc1ncc(Cl)c(O[C@@H]2Cc3ccccc3[C@H]2N(C)S(C)(=O)=O)n1` [Example 41] showed a pIC50 of 8.70.

For the molecule `COc1cc(C(=O)NCCN2CCN(C)CC2)c(F)cc1Nc1ncc(C(F)(F)F)c(O[C@@H]2Cc3ccccc3[C@H]2N(C)S(C)(=O)=O)n1` [Example 5], the pIC50 is 8.40.

The molecule `COc1cc(C(=O)NC2CCN(C)CC2)c(Cl)cc1Nc1ncc(C(F)(F)F)c(O[C@@H]2CCC[C@H]2NS(=O)(=O)CCl)n1` [Example 47] showed a pIC50 of 8.52.

Molecule `CNC(=O)c1cc(OC)c(Nc2ncc(Cl)c(O[C@@H]3Cc4ccccc4[C@H]3N(C)S(C)(=O)=O)n2)cc1F` [Example 67] had a pIC50 of 7.80.

The molecule `COc1cc(NC(C)=O)ccc1Nc1ncc(C(F)(F)F)c(O[C@@H]2Cc3ccccc3[C@H]2N(C)S(C)(=O)=O)n1` [Example 94] showed a pIC50 of 8.30. Compared with the last molecule, the pIC50 is 0.50 log units higher.

`COc1cc(C(=O)NCCN(C)C)c(Cl)cc1Nc1ncc(C(F)(F)F)c(O[C@@H]2Cc3ccccc3[C@H]2NS(C)(=O)=O)n1` [Example 86] gave a pIC50 of 9.35.

Molecule `COc1cc(C(=O)NC[C@@H](O)CO)c(F)cc1Nc1ncc(Cl)c(O[C@@H]2Cc3ccccc3[C@H]2N(C)S(C)(=O)=O)n1` [Example 51] showed a pIC50 of 7.89.

The molecule `COc1cc(C(=O)NN2CCN(C)CC2)c(F)cc1Nc1ncc(Cl)c(O[C@@H]2CCC[C@H]2N(C)S(C)(=O)=O)n1` [Example 88, 4-{5-chloro-4-[(1R,2R)-2-(methanesulphonyl-methyl-amino)-cyclopentyloxy]-pyrimidin-2-ylamino}-2-fluoro-5-methoxy-N-(4-methyl-piperazin-1-yl)-benzamide] had a pIC50 of 9.43. This pIC50 lies 1.54 log units higher than the previous one.

As to `COc1cc(C(=O)NCCN(C)C)ccc1Nc1ncc(C(F)(F)F)c(O[C@@H]2CCCC[C@H]2N(C)S(C)(=O)=O)n1` [Example 111], the pIC50 was 9.44.

`CONC(=O)c1cc(OC)c(Nc2ncc(Cl)c(O[C@@H]3Cc4ccccc4[C@H]3N(C)S(C)(=O)=O)n2)cc1F` [Example 43] gave a pIC50 of 7.66.

Regarding `COc1cc(C(=O)NCCN(C)C)c(F)cc1Nc1ncc(Cl)c(O[C@@H]2Cc3ccccc3[C@H]2N(C)S(C)(=O)=O)n1` [Example 53], the pIC50 is 8.40.

Regarding `CNC(=O)c1cc(OC)c(Nc2ncc(C(F)(F)F)c(O[C@@H]3Cc4ccccc4[C@H]3N(C)S(C)(=O)=O)n2)cc1F` [Example 6], the pIC50 is 7.77.

In turn, `COc1cc(C(=O)NC2CCN(C)CC2)c(F)cc1Nc1ncc(C(F)(F)F)c(O[C@@H]2CCC[C@H]2NS(C)(=O)=O)n1` [Example 28, 2-fluoro-4-[4-((1R,2R)-2-methanesulphonylamino-cyclopentyloxy)-5-trifluoromethyl-pyrimidin-2-ylamino]-5-methoxy-N-(1-methyl-piperidin-4-yl)-benzamide] had a pIC50 of 8.70.
